Data taken from ChEMBL document CHEMBL5335854, “Genomic and Metabolomic Analyses of Nocardiopsis maritima YSL2 as the Mycorrhizosphere Bacterium of Suaeda maritima (L.) Dumort” (2024).
Converted amounts (≈) assume the structure as drawn.

Experiments:
Format in all cases: functional
Bacillus subtilis = assay: Antibacterial activity against Bacillus subtilis KCCM 11316 assessed as inhibition of bacterial growth incubated for 24 hrs by broth dilution method
[1] = tested on: Staphylococcus epidermidis; assay: Antibacterial activity against Staphylococcus epidermidis KCCM 35494 assessed as inhibition of bacterial growth incubated for 24 hrs by broth dilution method
Escherichia coli = assay: Antibacterial activity against Escherichia coli KCCM 11234 assessed as inhibition of bacterial growth incubated for 24 hrs by broth dilution method
Pseudomonas fluorescens = assay: Antibacterial activity against Pseudomonas fluorescens KCCM 11362 assessed as inhibition of bacterial growth incubated for 24 hrs by broth dilution method

MIC (Bacillus subtilis) [µg/mL]	MIC [1] [µg/mL]	MIC (Escherichia coli) [µg/mL]	MIC (Pseudomonas fluorescens) [µg/mL]	SMILES
> 128	4 (≈ 5.14 µM)	16 (≈ 20.6 µM)	16 (≈ 20.6 µM)	CC[C@@H](C)[C@H]1NC(=O)[C@H](Cc2ccccc2)NC(=O)[C@@H](CCCCN)NC(=O)[C@H](Cc2ccc(O)cc2)NC(=O)[C@H]([C@@H](C)CC)NC(=O)[C@@H](CC(C)C)NC1=O
> 128	8 (≈ 10.5 µM)	16 (≈ 20.9 µM)	32 (≈ 41.9 µM)	CC[C@H](C)[C@@H]1NC(=O)[C@@H](CC(C)C)NC(=O)[C@@H](C(C)C)NC(=O)[C@H](Cc2ccccc2)NC(=O)[C@@H](CCCCN)NC(=O)[C@H](Cc2ccc(O)cc2)NC1=O

SMILES	MIC (Bacillus subtilis) [µg/mL]	MIC [1] [µg/mL]	MIC (Escherichia coli) [µg/mL]	MIC (Pseudomonas fluorescens) [µg/mL]
NC[C@H]1O[C@H](O[C@H]2[C@H](O)[C@@H](O[C@H]3O[C@H](CO)[C@@H](O)[C@H](N)[C@H]3O)[C@H](N)C[C@@H]2N)[C@H](O)[C@@H](O)[C@@H]1O [KANAMYCIN]	2 (≈ 4.13 µM)	0.5 (≈ 1.03 µM)	1 (≈ 2.06 µM)	1 (≈ 2.06 µM)
